The subject of the assay is HT29 xenograft, nude mice, s.c., tumor weight T/C%. In words: NCI In Vivo Anticancer Drug Screen. Data for tumor model HT29;CX-1 Human Adenocarcinoma (MER+) (subcutaneous) in NU/NU Swiss (nude) mice. The following applies: endpoint: optimum tumor weight change, higher = larger tumour. Here is the method: The antitumor activity of compounds was measured in mice bearing transplantable tumors. Survival or tumor size were measured and the results are expressed as the measurement made in the treated group (T) divided by the measurement made in the vehicle treated control group (C). The tumor model used in this assay is HT29;CX-1 Human Adenocarcinoma (MER+) (subcutaneous) in NU/NU Swiss (nude) mice

Drawing on PubChem BioAssay AID202 (DTP/NCI, 2004), this text covers T/C for 6 compounds.

“And” between values parts separate entries of the source, which are not always exact repeats. Identical values can stand only once.

With `CCCCNCCCNCCCNC(=O)c1csc(-c2csc(CCNC(=O)C(NC(=O)C(C)C(O)C(C)NC(=O)C(NC(=O)c3nc(C(CC(N)=O)NCC(N)C(N)=O)nc(N)c3C)C(OC3OC(CO)C(O)C(O)C3OC3OC(CO)C(O)C(OC(N)=O)C3O)c3cnc[nH]3)C(C)O)n2)n1` (configuration not stated), the T/C (dose: 7.5 mg/kg/injection, schedule: Q04DX003 (ip), vehicle: saline) was 75 % of control; the T/C (dose: 15.0 mg/kg/injection, schedule: Q04DX003 (ip), vehicle: saline) is 28 % of control; the T/C (dose: 15.0 mg/kg/injection, schedule: Q04DX004 (ip), vehicle: saline) was 40 % of control; the T/C (dose: 30.0 mg/kg/injection, schedule: Q04DX003 (ip), vehicle: saline) is 19 % of control and 33 % of control; the T/C (dose: 30.0 mg/kg/injection, schedule: Q04DX004 (ip), vehicle: saline) was 38 % of control; the T/C (dose: 60.0 mg/kg/injection, schedule: Q04DX003 (ip), vehicle: saline) is 20 % of control. The T/C reads like this: (dose: 60.0 mg/kg/injection, schedule: Q04DX004 (ip), vehicle: saline) 18 % of control; (dose: 120.0 mg/kg/injection, schedule: Q04DX003 (ip), vehicle: saline) 2 % of control.

With `Nc1cc2[nH]cnc2c(=O)[nH]1`, the T/C reads like this: (dose: 50.0 mg/kg/injection, schedule: Q04DX003 (ip), vehicle: saline) 89 % of control; (dose: 100.0 mg/kg/injection, schedule: Q04DX003 (ip), vehicle: saline) 83 % of control; (dose: 200.0 mg/kg/injection, schedule: Q04DX003 (ip), vehicle: saline) 93 % of control.

Turning to `O=Cc1ccc(O)c(O)c1`, the T/C (dose: 100.0 mg/kg/injection, schedule: Q04DX003 (ip), vehicle: saline with Tween-80) is 94 % of control.

With `NC(=O)c1ccc[n+](Cc2c(Cl)cccc2Cl)c1`, the T/C (dose: 48.0 mg/kg/injection, schedule: Q04DX003 (ip), vehicle: saline) is 122 % of control.

`O=C(O)C1(C(=O)O)CCC1.[NH2-].[NH2-].[Pt+2]`: the T/C runs as follows: (dose: 6.25 mg/kg/injection, schedule: Q04DX003 (ip), vehicle: dextrose) 109 % of control; (dose: 25.0 mg/kg/injection, schedule: Q04DX003 (ip), vehicle: dextrose) 69 % of control.

In the case of `CS(=O)(=O)OCCN(CCOS(C)(=O)=O)c1ccc(C=Nc2ccc(-c3csc(COc4ccccc4)n3)cc2)cc1`, the T/C (dose: 100.0 mg/kg/injection, schedule: Q04DX003 (ip), vehicle: Klucel (hydroxypropylcellulose) (HPC)) is 71 % of control and the T/C (dose: 200.0 mg/kg/injection, schedule: Q04DX003 (ip), vehicle: Klucel (hydroxypropylcellulose) (HPC)) is 70 % of control.

For orientation: T/C means the result in the treated group divided by that in the control group, in per cent.
